Experimental data from US8735406B2, “8-oxodihydropurine derivative” (Dainippon Sumitomo Pharma Co., Ltd., priority 2009, dated 2014).

Target: T1, FAAH (Rattus norvegicus, UniProt P97612)
T1 construct: Preparation of Rat Brain Membranes Preparations (FAAH Enzyme Solution); from tissue; host or cells: rat cerebrum (brain membrane preparation)
T1 sequence (P97612 1-579): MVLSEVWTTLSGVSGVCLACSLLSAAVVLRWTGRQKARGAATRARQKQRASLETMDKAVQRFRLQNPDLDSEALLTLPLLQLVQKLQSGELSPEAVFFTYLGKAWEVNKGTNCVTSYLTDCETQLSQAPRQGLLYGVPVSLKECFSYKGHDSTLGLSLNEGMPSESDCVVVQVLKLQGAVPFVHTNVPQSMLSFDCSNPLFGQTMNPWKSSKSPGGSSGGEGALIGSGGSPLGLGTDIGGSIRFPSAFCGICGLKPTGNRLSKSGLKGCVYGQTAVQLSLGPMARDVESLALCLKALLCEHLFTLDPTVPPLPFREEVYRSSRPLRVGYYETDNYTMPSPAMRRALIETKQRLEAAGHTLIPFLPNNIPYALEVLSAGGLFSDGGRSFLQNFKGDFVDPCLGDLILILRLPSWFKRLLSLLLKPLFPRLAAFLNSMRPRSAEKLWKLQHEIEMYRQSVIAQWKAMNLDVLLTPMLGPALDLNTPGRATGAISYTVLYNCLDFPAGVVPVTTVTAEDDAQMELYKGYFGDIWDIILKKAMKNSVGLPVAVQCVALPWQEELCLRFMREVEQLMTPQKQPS
Experiment: Determination of FAAH inhibitory activity in rat (rat brain membrane preparations, [3H]-anandamide hydrolysis)
Assay type: biochemical
Conditions: rat brain membrane preparations; for inhibition at 0.1 µM: read-out: FAAH Inhibition, Inhibition Rate at 100 nM; for IC50: test substance 0.1 nM to 1 μM, read-out: FAAH Inhibition IC50
Procedure, shortened: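 Compounds tested from 0.1 nM to 1 μM to derive IC50 against FAAH hydrolysis in rat brain membrane preparations (100 μg/mL). A 10-min 37 °C preincubation was followed by 10 min with [3H]-anandamide (2 nM) mixed with 2 μM unlabelled anandamide. Radioactive ethanolamine was extracted into the water/methanol layer and counted.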

SMILES | inhibition at 0.1 µM (100 nM test substance) | IC50 | FAAH Inhibition, Inhibition Rate at 100 nM (100 nM test substance, 0.1 µM)
COCc1ncc2c(n1)n(C)c(=O)n2C(=O)N1CC[C@H](Oc2ccc(C)cc2)C1 [Example 484, 2-(Methoxymethyl)-9-methyl-7-{[(3S)-3-(4-methylphenoxy)pyrrolidin-1-yl]carbonyl}-7,9-dihydro-8H-purine-8-one] | 86% | 9 nM | 
COCc1ncc2c(n1)n(C)c(=O)n2C(=O)N1CC[C@H](Oc2cccc(C)c2)C1 [Example 485, 2-(Methoxymethyl)-9-methyl-7-{[(3S)-3-(3-methylphenoxy)pyrrolidin-1-yl]carbonyl}-7,9-dihydro-8H-purine-8-one] | 112% | 3 nM | 
COCc1ncc2c(n1)n(C)c(=O)n2C(=O)N1CC[C@H](Oc2ccccc2C)C1 [Example 486, 2-(Methoxymethyl)-9-methyl-7-{[(3S)-3-(2-methylphenoxy)pyrrolidin-1-yl]carbonyl}-7,9-dihydro-8H-purine-8-one] | 113% | 2 nM | 
COCc1ncc2c(n1)n(C)c(=O)n2C(=O)N1CC[C@@H](Oc2cccc(Cl)c2)C1 [Example 487, 7-{[(3R)-3-(3-Chlorophenoxy)pyrrolidin-1-yl]carbonyl}-2-(methoxymethyl)-9-methyl-7,9-dihydro-8H-purine-8-one] | 99% | 15 nM | 
COCc1ncc2c(n1)n(C)c(=O)n2C(=O)N1CC[C@@H](Oc2ccccc2)C1 [Example 488, 2-(Methoxymethyl)-9-methyl-7-{[(3R)-3-phenoxypyrrolidin-1-yl]carbonyl}-7,9-dihydro-8H-purine-8-one] | 74% | 43 nM | 
COCc1ncc2c(n1)n(C)c(=O)n2C(=O)N1CC[C@H](Oc2ccc(Cl)cc2)C1 [Example 489, 7-{[(3S)-3-(4-Chlorophenoxy)pyrrolidin-1-yl]carbonyl}-2-(methoxymethyl)-9-methyl-7,9-dihydro-8H-purine-8-one] | 98% | 1 nM | 
COCc1ncc2c(n1)n(C)c(=O)n2C(=O)N1CC[C@H](Oc2cccc(Cl)c2)C1 [Example 490, 7-{[(3S)-3-(3-Chlorophenoxy)pyrrolidin-1-yl]carbonyl}-2-(methoxymethyl)-9-methyl-7,9-dihydro-8H-purine-8-one] | 97% | 2 nM | 
COCc1ncc2c(n1)n(C)c(=O)n2C(=O)N1CC[C@H](Oc2ccccc2Cl)C1 [Example 491, 7-{[(3S)-3-(2-Chlorophenoxy)pyrrolidin-1-yl]carbonyl}-2-(methoxymethyl)-9-methyl-7,9-dihydro-8H-purine-8-one] | 100% | 2 nM | 
COCc1ncc2c(n1)n(C)c(=O)n2C(=O)N1CC(COc2ccc(F)cc2)C1 [Example 492, 7-({3-[(4-Fluorophenoxy)methyl]azetidin-1-yl}carbonyl)-2-(methoxymethyl)-9-methyl-7,9-dihydro-8H-purine-8-one] | 103% | 2 nM | 
CN(C)C(=O)n1c(=O)n(C)c2cnc(CCc3ccc(OC(F)F)cc3)nc21 [Example 493, 2-{2-[4-(difluoromethoxy)phenyl]ethyl}-N,N,7-trimethyl-8-oxo-7,8-dihydro-9H-purine-9-carboxamide] | 79% | 27 nM | 
Cc1ccc(CCc2ncc3c(n2)n(C(=O)N(C)C)c(=O)n3C)cc1 [Example 494, N,N,7-Trimethyl-2-[2-(4-methylphenyl)ethyl]-8-oxo-7,8-dihydro-9H-purine-9-carboxamide] | 98% | 11 nM | 
CN(C)C(=O)n1c(=O)n(C)c2cnc(CCc3cc(F)cc(F)c3)nc21 [Example 497, 2-[2-(3,5-Difluorophenyl)ethyl]-N,N,7-trimethyl-8-oxo-7,8-dihydro-9H-purine-9-carboxamide] |  | 25 nM | 94%
CN(C)C(=O)n1c(=O)n(C)c2cnc(CCc3ccc(F)cc3F)nc21 [Example 506, 2-[2-(2,4-Difluorophenyl)ethyl]-N,N,7-trimethyl-8-oxo-7,8-dihydro-9H-purine-9-carboxamide] | 94% | 28 nM | 
CN(C)C(=O)n1c(=O)n(C)c2cnc(CCc3cccc(OCC(F)F)c3)nc21 [Example 530, 2-{2-[3-(2,2-Difluoroethoxy)phenyl]ethyl}-N,N,7-trimethyl-8-oxo-7,8-dihydro-9H-purine-9-carboxamide] | 66% | 52 nM | 
CN(C)C(=O)n1c(=O)n(C)c2cnc(CCc3ccc(F)cc3)nc21 [Example 533, 2-[2-(4-Fluorophenyl)ethyl]-N,N,7-trimethyl-8-oxo-7,8-dihydro-9H-purine-9-carboxamide] | 53% | 99 nM | 
CN(C)C(=O)n1c(=O)n(C)c2cnc(CCc3ccc(OCC(F)F)cc3)nc21 [Example 538, 2-{2-[4-(2,2-Difluoroethoxy)phenyl]ethyl}-N,N,7-trimethyl-8-oxo-7,8-dihydro-9H-purine-9-carboxamide] | 51% |  | 
CN(C)C(=O)n1c(=O)n(C)c2cnc(CCc3ccc(C(F)(F)F)cc3)nc21 [Example 540, N,N,7-Trimethyl-8-oxo-2-{2-[4-(trifluoromethyl)phenyl]ethyl}-7,8-dihydro-9H-purine-9-carboxamide] | 88% | 17 nM | 
CN(C)C(=O)n1c(=O)n(C)c2cnc(CCc3cccc(OCC(F)(F)F)c3)nc21 [Example 552, N,N,7-Trimethyl-8-oxo-2-{2-[3-(2,2,2-trifluoroethoxy)phenyl]ethyl}-7,8-dihydro-9H-purine-9-carboxamide] | 98% | 15 nM | 
CN(C)C(=O)n1c(=O)n(C)c2cnc(CCc3ccc(OCC(F)(F)F)cc3)nc21 [Example 553, N,N,7-Trimethyl-8-oxo-2-{2-[4-(2,2,2-trifluoroethoxy)phenyl]ethyl}-7,8-dihydro-9H-purine-9-carboxamide] | 97% | 9 nM | 
Cn1c(=O)n(C(=O)N2CCC2)c2nc(CCc3ccc(C(F)F)cc3)ncc21 [Example 576, 9-(Azetidin-1-ylcarbonyl)-2-{2-[4-(difluoromethyl)phenyl]ethyl}-7-methyl-7,9-dihydro-8H-purine-8-one] | 110% | 10 nM | 
Cn1c(=O)n(C(=O)N2CCC2)c2nc(CCc3cc(F)cc(F)c3)ncc21 [Example 580, 9-(Azetidin-1-ylcarbonyl)-2-[2-(3,5-difluorophenyl)ethyl]-7-methyl-7,9-dihydro-8H-purine-8-one] | 81% | 25 nM | 
Cn1c(=O)n(C(=O)N2CCC2)c2nc(CCc3ccccc3F)ncc21 [Example 583, 9-(Azetidin-1-ylcarbonyl)-2-[2-(2-fluorophenyl)ethyl]-7-methyl-7,9-dihydro-8H-purine-8-one] | 87% | 94 nM | 
Cn1c(=O)n(C(=O)N2CCC2)c2nc(CCc3ccc(F)cc3)ncc21 [Example 587, 9-(Azetidin-1-ylcarbonyl)-2-[2-(4-fluorophenyl)ethyl]-7-methyl-7,9-dihydro-8H-purine-8-one] | 68% | 51 nM | 
Cn1c(=O)n(C(=O)N2CCC2)c2nc(CCc3ccc(OCC(F)F)cc3)ncc21 [Example 593, 9-(Azetidin-1-ylcarbonyl)-2-{2-[4-(2,2-difluoroethoxy)phenyl]ethyl}-7-methyl-7,9-dihydro-8H-purine-8-one] | 58% | 59 nM | 
